# Assay results taken from patent publication US20260048101A1, “GLP-1R ANTAGONISM TO IMPROVE NUTRITION FOLLOWING GASTROINTESTINAL SURGERY” (Amylyx Pharmaceuticals, Inc., priority 2023, published 2026).
# Test system: Patient 2 (total gastrectomy, severe hypoglycemia events)
# Assay: Patient 2 case history: prior pharmacotherapy
# Format: in vivo, human
# Conditions: Patient 2, before trial participation
# Text: The patient had been placed on a liquid diet for 6 weeks after surgery and had initially lost 20 lbs. but otherwise fared well in the immediate postoperative period. […] The meals caused pain, gastrointestinal symptoms, and frequent diarrhea (per patient report). The patient also complained of weakness, lethargy and general feeling of despondency. […] They began to experience severe hypoglycemia events, including multiple episodes of loss of consciousness with requirement for emergency medical assistance. […] The patient was referred for trial participation.
smiles,measurement,value
C[C@H]1O[C@H](O[C@H]2[C@H](O)[C@@H](O)[C@@H](O[C@H]3[C@H](O)[C@@H](O)C(O)O[C@@H]3CO)O[C@@H]2CO)[C@H](O)[C@@H](O)[C@@H]1N[C@H]1C=C(CO)[C@@H](O)[C@H](O)[C@H]1O (stereo partly shown) [acarbose],gastrointestinal symptoms,worsening of gastrointestinal symptoms
